pIC50, pKi: −log10 of the molar value.
What follows are molecules tested against HIV-1 protease (Human immunodeficiency virus type 1 group M subtype B, UniProt P04585) (assay: biochemical). Details: HIV-1 protease; upper line of each compound's entry; read-out: Ki (enzyme).

Structure (SMILES)	pKi
CC(C)(C)OC(=O)CNc1cccc(S(=O)(=O)N(CC(O)C(Cc2ccccc2)NC(=O)OC2COC3OCCC23)OC2CCCC2)c1 (mixture of isomers) [Compound 30, tert-butyl 2-(3-[[(2R,3S)-3-([(3R,3aS,6aR)hexahydrofuro[2,3-b]furan-3-yloxy]carbonylamino)-2-hydroxy-4-phenylbutyl](cyclopentyloxy)amino]sulfonylanilino)acetate and tert-butyl 2-(3-[[(2R,3S)-3-([(3S,3aR,6aS)hexahydrofuro[2,3-b]furan-3-yloxy]carbonylamino)-2-hydroxy-4-phenylbutyl](cyclopentyloxy)amino]sulfonylanilino)acetate]	> 9.00
COc1cc(C(=O)Nc2nc3cc(S(=O)(=O)N(C[C@@H](O)[C@H](Cc4ccccc4)NC(=O)OC(C)(C)C)OC4CCCC4)ccc3[nH]2)cc(OC)c1OC [Compound 12, Tert-butyl N-(1S,2R)-1-benzyl-3-[(cyclopentyloxy)(2-[(3,4,5-trimethoxyphenyl-carbonyl)amino]-1H-benzimidazol-5-ylsulfonyl)amino]-2-hydroxypropylcarbamate]	< 8.00
COC(=O)CC(=O)Nc1nc2cc(S(=O)(=O)N(C[C@@H](O)[C@H](Cc3ccccc3)NC(=O)OC(C)(C)C)OC3CCCC3)ccc2[nH]1 [Compound 13, Tert-butyl N-(1S,2R)-1-benzyl-3-[(cyclopentyloxy)(2-[(methyl3-oxopropionate)amino]-1H-benzimidazol-5-ylsulfonyl)amino]-2-hydroxypropylcarbamate]	7.00 to 8.00
O=C(N[C@@H](Cc1ccccc1)[C@H](O)CN(OC1CCCC1)S(=O)(=O)c1ccc(OCCO)cc1)O[C@H]1CO[C@H]2OCC[C@H]21 [Compound 42, (3R,3aS,6aR)hexahydrofuro[2,3-b]furan-3-yl N-[(1S,2R)-1-benzyl-3-((cyclopentyloxy)[4-(2-hydroxyethoxy)phenyl]sulfonylamino)-2-hydroxypropyl]carbamate]	> 9.00
CN(C)c1cccc(S(=O)(=O)N(CC(O)C(Cc2ccccc2)NC(=O)OC2COC3OCCC23)OC2CCCC2)c1 [Compound 43, (3R,3aS,6aR)hexahydrofuro[2,3-b]furan-3-yl N-(1S,2R)-3-[[(3-N,N-dimethylaminophenyl)sulfonyl)(cyclopentyloxy)amino)-1-benzyl-2-hydroxypropylcarbamate]	> 9.00
CC(C)ON(C[C@@H](O)[C@H](Cc1ccccc1)NC(=O)O[C@H]1CCOC1)S(=O)(=O)c1ccc2[nH]cnc2c1 [Compound 63, (3S)tetrahydro-3-furanyl N-(1S,2R)-3-[(1H-1,3-benzimidazol-5-ylsulfonyl)(isopropoxy)amino]-1-benzyl-2-hydroxypropylcarbamate]	8.00 to 9.00
CC(=O)NCCNc1cccc(S(=O)(=O)N(CC(O)C(Cc2ccccc2)NC(=O)OC2COC3OCCC23)OC2CCCC2)c1 [Compound 84, (3R,3aS,6aR)hexahydrofuro[2,3-b]furan-3-yl N-(1S,2R)-3-[[(3-[2-(acetylamino)ethyl]aminophenyl)sulfonyl](cyclopentyloxy)amino]-1-benzyl-2-hydroxypropylcarbamate and (3S,3aR,6aS)hexahydrofuro[2,3-b]furan-3-yl N-(1S,2R)-3-[[(3-[2-(acetylamino)ethyl]aminophenyl)sulfonyl](cyclopentyloxy)amino]-1-benzyl-2-hydroxypropylcarbamate]	> 9.00
NC(=O)CNc1cccc(S(=O)(=O)N(CC(O)C(Cc2ccccc2)NC(=O)OC2COC3OCCC23)OC2CCCC2)c1 [Compound 85, (3R,3aS,6aR)hexahydrofuro[2,3-b]furan-3-yl N-(1S,2R)-3-[(3-[(2-amino-2-oxoethyl)amino]phenylsulfonyl)(cyclopentyloxy)amino]-1-benzyl-2-hydroxypropylcarbamate and (3S,3aR,6aS)hexahydrofuro[2,3-b]furan-3-yl N-(1S,2R)-3-[(3[(2-amino-2-oxoethyl)amino]phenylsulfonyl) (cyclopentyloxy)amino]-1-benzyl-2-hydroxypropylcarbamate]	> 9.00
O=C(NC(Cc1ccccc1)C(O)CN(OC1CCCC1)S(=O)(=O)c1ccc2[nH]nnc2c1)OC1COC2OCCC12 [Compound 91, (3aS,6aR)Hexahydrofuro[2,3-b]furan-3-yl N-(1S,2R)-1-benzyl-3-[(cyclopentyloxy)(benzotriazole-5-ylsulfonyl)amino]-2-hydroxypropylcarbamate]	> 9.00
O=C(N[C@@H](Cc1ccccc1)[C@H](O)CN(OC1CCCC1)S(=O)(=O)c1ccc2[nH]nnc2c1)OC1COCOC1 [Compound 92, 1,3-Dioxan-5-yl N-(1S,2R)-1-benzyl-3-[(cyclopentyloxy)(benzotriazole-5-ylsulfonyl)amino]-2-hydroxypropylcarbamate]	> 9.00
O=C(N[C@@H](Cc1ccccc1)[C@H](O)CN(OC1CCCC1)S(=O)(=O)c1ccc(OCCN2CCOCC2)cc1)O[C@H]1CO[C@H]2OCC[C@H]21 [Compound 98, (3R,3aS,6aR)hexahydrofuro[2,3-b]furan-3-yl N-[(1S,2R)-1-benzyl-3-((cyclopentyloxy)[4-(2-morpholinoethoxy)phenyl]sulfonylamino)-2-hydroxypropyl]carbamate]	> 9.00
O=C(N[C@@H](Cc1ccccc1)[C@H](O)CN(OC1CCCC1)S(=O)(=O)c1cccc(OCCN2CCOCC2)c1)O[C@H]1CO[C@H]2OCC[C@H]21 [Compound 99, (3R,3aS,6aR)hexahydrofuro[2,3-b]furan-3-yl N-[(1S, 2R)-1-benzyl-3-((cyclopentyloxy)[3-(2-morpholinoethoxy)phenyl]sulfonylamino)-2-hydroxypropyl]carbamate]	> 9.00

Each molecule was assayed on HIV-1 (strain IIIB) (assay: microbe, parasite or virus in culture). Details: Human immunodeficiency virus 1, 120 h; MT4 cells infected with HIV-1 strain IIIB, 5 days; lower line of each compound's entry; read-out: IC50 (MT-4 cells).
Format: cell-based

Structure (SMILES)	pIC50
CC(C)(C)OC(=O)CNc1cccc(S(=O)(=O)N(CC(O)C(Cc2ccccc2)NC(=O)OC2COC3OCCC23)OC2CCCC2)c1 (mixture of isomers) [Compound 30, tert-butyl 2-(3-[[(2R,3S)-3-([(3R,3aS,6aR)hexahydrofuro[2,3-b]furan-3-yloxy]carbonylamino)-2-hydroxy-4-phenylbutyl](cyclopentyloxy)amino]sulfonylanilino)acetate and tert-butyl 2-(3-[[(2R,3S)-3-([(3S,3aR,6aS)hexahydrofuro[2,3-b]furan-3-yloxy]carbonylamino)-2-hydroxy-4-phenylbutyl](cyclopentyloxy)amino]sulfonylanilino)acetate]	6.30 to 7.00

Same assay, conditions: MT4 cells infected with HIV-1 strain IIIB, 5 days; lower line of each compound's entry; read-out: IC50 (MT-4 cells)

Structure (SMILES)	pIC50
CS(=O)(=O)Nc1nc2cc(S(=O)(=O)N(C[C@@H](O)[C@H](Cc3ccccc3)NC(=O)OC3COCOC3)OC3CCCC3)ccc2[nH]1 [Compound 132, 1,3-Dioxan-5-yl-N-((1S,2R)-1-benzyl-3-(cyclopentyloxy)(2-[(methylsulfonyl)amino)benzimidazol-5-ylsulfonyl)amino-2-hydroxypropyl)carbamate]	≥ 7.00
COc1ccc(S(=O)(=O)N(C[C@@H](O)[C@H](Cc2ccccc2)NC(=O)OC(C)(C)C)OC(C)CCC#N)cc1 (some centres unmarked) [Compound 152, tert-butyl 1-benzyl-3-{(3-cyano-1-methylpropoxy)[(4-methoxyphenyl)sulfonyl]amino}-2-hydroxypropylcarbamate]	6.00 to 6.30
Nc1ccc(S(=O)(=O)N(CC(O)C(Cc2ccccc2)NC(=O)OC2COC3OCCC23)OC2CCCC2)cc1 [Example 172, (3S,3aR,6aS)hexahydrofuro[2,3-b]furan-3-yl N-(1S,2R)-3-[[(4-aminophenyl)sulfonyl](cyclopentyloxy)amino]-1-benzyl-2-hydroxypropyl carbamate]	≥ 7.00

Same assay, conditions: […]; lower line of each compound's entry; read-out: IC50 (MT-4 cells)

Structure (SMILES)	pIC50
O=C(N[C@@H](Cc1ccccc1)[C@H](O)CN(OC1CCCC1)S(=O)(=O)c1ccc(O)cc1)O[C@H]1CO[C@H]2OCC[C@H]21 [Compound 41, (3R,3aS,6aR)hexahydrofuro[2,3-b]furan-3-yl N-((1S,2R)-1-benzyl-3-(cyclopentyloxy)[(4-hydroxyphenyl)sulfonyl]amino-2-hydroxypropyl)carbamate]	≥ 7.00

Source: patent US20040097594A1 (priority 1998, published 2004)
